Blank lines part the entries; values can stand above or below the compound they belong to.
Columns and labels:
[1] = target: T1, Nos2 (Mus musculus, UniProt P29477); experiment: NO / total NOx production in VSMCs transduced with siAdamts1 and treated with Nos2 inhibitors; format: cell-based; details: FIG. 16: 1400W (2 μm), AG, GW273629 (20 μm), 1-NIL (3 mM), Clotrimazole (20 μM)
T1 construct: endogenous in cells; host or cells: primary mouse VSMCs transduced with siCtl or siAdamts1 lentivirus
Protocol: FIG. 17. Representative images (n=4) of NO production (red) and GFP fluorescence (green) in unfixed VSMCs transduced with siCtl or siAdamts1 and treated with the Nos2 inhibitors as indicated. Bar, 50 μm.
Mouse vascular smooth muscle cells (VSMCs) were isolated and grown as described (Esteban et al., 2011). All experiments were performed during passages 3-7. VSMCs were infected at a multiplicity of infection (MOI)=3 over 5 h. The medium was then replaced with fresh DMEM supplemented with 10% FBS, and cells were cultured for 3 more days, serum-starved for 48 h and then stimulated with Ang-II for 6 h for protein assays or 4 h for mRNA expression analysis.

[2] = target: NOS2 (Homo sapiens, UniProt P35228); details: as reported previously; cited from earlier work
Sequence of NOS2 (P35228 whole entry, the tested form may be a part): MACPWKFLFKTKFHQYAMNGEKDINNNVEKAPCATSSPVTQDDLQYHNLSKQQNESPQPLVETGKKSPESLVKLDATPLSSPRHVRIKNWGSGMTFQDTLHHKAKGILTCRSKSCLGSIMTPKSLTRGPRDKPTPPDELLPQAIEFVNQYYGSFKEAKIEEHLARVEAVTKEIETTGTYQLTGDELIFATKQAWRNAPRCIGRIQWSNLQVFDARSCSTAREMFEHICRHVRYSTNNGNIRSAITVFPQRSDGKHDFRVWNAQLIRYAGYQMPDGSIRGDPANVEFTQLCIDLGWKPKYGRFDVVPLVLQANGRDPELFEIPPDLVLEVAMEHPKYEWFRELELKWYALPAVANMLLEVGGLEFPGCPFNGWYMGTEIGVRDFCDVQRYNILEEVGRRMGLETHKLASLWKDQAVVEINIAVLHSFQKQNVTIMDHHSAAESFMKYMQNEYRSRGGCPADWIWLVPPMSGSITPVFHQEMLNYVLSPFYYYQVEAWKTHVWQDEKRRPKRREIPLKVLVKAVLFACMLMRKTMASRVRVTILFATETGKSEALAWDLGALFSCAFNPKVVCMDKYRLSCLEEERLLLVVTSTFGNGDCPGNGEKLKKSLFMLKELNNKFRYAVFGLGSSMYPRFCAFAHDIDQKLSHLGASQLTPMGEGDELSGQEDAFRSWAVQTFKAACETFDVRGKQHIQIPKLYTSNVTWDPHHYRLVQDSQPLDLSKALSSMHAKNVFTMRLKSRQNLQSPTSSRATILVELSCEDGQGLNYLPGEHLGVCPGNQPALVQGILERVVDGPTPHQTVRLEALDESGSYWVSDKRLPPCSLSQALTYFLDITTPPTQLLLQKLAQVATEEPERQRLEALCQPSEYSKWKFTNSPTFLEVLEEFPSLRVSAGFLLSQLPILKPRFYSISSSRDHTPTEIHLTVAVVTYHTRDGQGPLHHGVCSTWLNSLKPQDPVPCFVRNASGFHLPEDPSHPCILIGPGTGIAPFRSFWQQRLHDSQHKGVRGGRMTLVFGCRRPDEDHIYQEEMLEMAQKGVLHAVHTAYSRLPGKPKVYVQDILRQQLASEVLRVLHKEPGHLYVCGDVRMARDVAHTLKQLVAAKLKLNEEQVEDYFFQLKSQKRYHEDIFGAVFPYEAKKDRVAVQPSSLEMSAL

[3] = tested on: siAdamts1-transduced C57BL/6 mice; experiment: Aortopathy induced by siAdamts1 lentivirus (aortic Adamts1 knockdown) in C57BL/6 mice; format: in vivo, mouse; details: for Elastic fiber fragmentation (elastolysis, elastin breaks) / Fibrosis (collagen content): aortic sections, end of experiment; for Aortic dilation (AsAo and AbAo diameter) induced by siAdamts1: anti-TGFβ 10 mg/kg i.p. 3 times per week, L-NAME 0.5 mg/ml in drinking water; for Systolic and diastolic BP (hypotension) in siAdamts1-transduced mice: same treatments as E4
Source text: (§1) Animal procedures were approved by the CNIC Ethics Committee and conformed to European Union guidelines for the care and experimental use of animals. Adamts1+/− mice were obtained from the European Mouse Mutant Archive [(EM:02291) B6; 129P2-Adamts1<tm1Dgen>/H] and carried a LacZ-Neo cassette to replace a genomic sequence (c7784) between exon1 and 2 in the Adamts1 target allele. Fbn1C1039G/+ mice (Judge et al., 2004), harboring a mutation in the Fbn1 gene, and Nos2−/− mice (Laubach et al., 1995) were obtained from Jackson Laboratories (JAX mice stock #012885 and 007072, respectively). These 3 strains had been previously backcrossed to C57BL/6 for more than nine generations. All mice were genotyped by PCR of tail samples using the following primers: Adamts1 mice (5′-[…]-3′(SEQ ID NO: 5), 5′-[…] (SEQ ID NO: 6)/[…]-3′ (SEQ ID NO: 7)); Nos2−/− mice (5′[…] 3′ (SEQ ID NO: 8); 5′ […] 3′(SEQ ID NO: 9), 5′ […] 3′) (SEQ ID NO: 10); Fbn1C1039G/+ mice (5′CTCATCATTTTTGGCCAGTTG 3′ (SEQ ID NO: 11), 5′GCACTTGATGCACATTCACA 3′ (SEQ ID NO: 12)). Wild-type littermates were used as controls unless otherwise specified. Mice were treated with Ang-II (Sigma-Aldrich) at 1 μg/kg/min or losartan (Sigma Aldrich) at 10 mg/kg/day using subcutaneous osmotic minipumps (Alzet Corp). The monoclonal pan-antibody against TGFβ1, 2, 3 clone 1D11 (BioXcell) was injected intraperitoneally 3 times per week at 10 mg/kg.
(§2) Arterial blood pressure (BP) was measured in mouse tails using the automated BP-2000 Blood Pressure Analysis System (Visitech Systems, Apex, NC, USA). In brief, mice were trained for BP measurements every day for one week. After training, BP was measured one day before treatment or before lentiviral infection to determine the baseline BP values in each mouse cohort. Measurements were repeated several times during experiments. BP measurements were recorded in mice located in a tail-cuff restrainer, over a warmed surface (37° C.). Fifteen consecutive systolic and diastolic BP measurements were made, and the last ten readings per mouse were recorded and averaged.
(§3) For in vivo ultrasound images, the aortic diameter was monitored in isofluorane-anesthetized mice (2% isofluorane) by high-frequency ultrasound with a VEVO 2100 echography device (VisualSonics, Toronto, Canada). Maximal internal diameters of aortic images were measured using VEVO 2100 software, version 1.5.0. All recordings were made by a cardiologist and a technician who were blinded to animal genotype and treatment. Measurements were taken before lentivirus administration or the corresponding treatments to determine the baseline diameters, and measurements were repeated several times during the experiment.
For in vivo transduction experiments, animals were anesthetized (ketamine/xilacine) and a small incision was made to expose the right jugular vein (Esteban et al., 2011). Virus solution ([…] in PBS) was inoculated directly into the right jugular vein 3 weeks before Ang-II mini-pump implantation or one day before monitoring of aortic dilation. Transduction efficiency was analyzed in aortic samples by immunohistochemistry for GFP and Adamts1.
(§4) Images of Masson's trichrome and EVG staining were analyzed for collagen content with ImageJ (http://rsbweb.nih.gov/ij/index.html) and with MetaMorph (Molecular Devices; Sunnyvale, California) for quantification of elastin breaks. For each animal, elastin breaks were counted in 3 sections and the mean number of breaks was calculated. Images were processed for presentation with Photoshop and Illustrator (Adobe). […]
Aortic extracts were prepared from whole aortas as described for immunoblot assays, but in the absence of DTT. Extracts (15 μg) were fractionated under nonreducing conditions on SDS-polyacrylamide gels containing 1% gelatin. […]

[4] = tested on: Adamts1+/− mice; experiment: Treatment of Adamts1+/− mice (aortic diameter, BP, histology); format: in vivo, mouse
Source text: as §1, §2, §3
Images of Masson's trichrome and EVG staining were analyzed for collagen content with ImageJ (http://rsbweb.nih.gov/ij/index.html) and with MetaMorph (Molecular Devices; Sunnyvale, California) for quantification of elastin breaks. For each animal, elastin breaks were counted in 3 sections and the mean number of breaks was calculated. Images were processed for presentation with Photoshop and Illustrator (Adobe).

[5] = tested on: Fbn1C1039G/+ mice; experiment: Treatment of Fbn1C1039G/+ mice (Marfan syndrome model); format: in vivo, mouse
Source text: as §1, §2
(§5) For in vivo ultrasound images, the aortic diameter was monitored in isofluorane-anesthetized mice (2% isofluorane) by high-frequency ultrasound with a VEVO 2100 echography device (VisualSonics, Toronto, Canada). Maximal internal diameters of aortic images were measured using VEVO 2100 software, version 1.5.0. […]
as §4, with “calculated.” for “calculated. Images were processed for presentation with Photoshop and Illustrator (Adobe).”

[6] = tested on: mouse model of mild MFS; details: cited from earlier work
[7] = tested on: model of severe MFS; details: compared with mild MFS model; cited from earlier work
[8] = tested on: aortic root enlargement; details: randomized clinical trials, cited from earlier work
[9] = tested on: wt mice; experiment: Ang-II treatment of wt mice for 28 days (ultrasonography of aorta); format: in vivo, mouse
Source text: Animal procedures were approved by the CNIC Ethics Committee and conformed to European Union guidelines for the care and experimental use of animals. Adamts1+/− mice were obtained from the European Mouse Mutant Archive [(EM:02291) B6; 129P2-Adamts1<tm1Dgen>/H] and carried a LacZ-Neo cassette to replace a genomic sequence (c7784) between exon1 and 2 in the Adamts1 target allele. Fbn1C1039G/+ mice (Judge et al., 2004), harboring a mutation in the Fbn1 gene, and Nos2−/− mice (Laubach et al., 1995) were obtained from Jackson Laboratories (JAX mice stock #012885 and 007072, respectively). These 3 strains had been previously backcrossed to C57BL/6 for more than nine generations. […]
as §5
To investigate the contribution of Adamts1 to Ang-II-elicited aortic dilation and aneurysm, we used Adamts1 deficient mice from the European Mouse Mutant Archive (EM: 02291). […] No aneurysms or lethal dissections were detected in Adamts1+/− mice in the absence of Ang-II at this age.

[10] = L-NAME 21 days, end of experiment

NO production (total NOx in conditioned media, NO staining) [1]: reduced the expression of NO
Compound: CC(=N)NCCCC[C@H](N)C(=O)O [L-NIL]

NO production (total NOx in conditioned media, NO staining) [1]: reduced the expression of NO
Compound: Clc1ccccc1C(c1ccccc1)(c1ccccc1)n1ccnc1 [Clotrimazole]
Dimerization of NOS2 [2]: inhibits the dimerization of NOS2

NO production (total NOx in conditioned media, NO staining) [1]: reduced the expression of NO
Compound: CC(=N)NCc1cccc(CN)c1 [1400W]

NO production (total NOx in conditioned media, NO staining) [1]: reduced the expression of NO
Compound: COC(=O)[C@@H](N)CCCNC(=N)N[N+](=O)[O-].Cl [L-NAME, Nω-Nitro-L-arginine methyl ester hydrochloride]
Mmp9 activation (zymography) ([3]; aortic extracts from siAdamts1-transduced mice): prevented Mmp9 activation
Elastic fiber fragmentation (elastolysis, elastin breaks) [3]: blocked elastolysis
Fibrosis (collagen content) [3]: decreased the fibrosis
Aortic dilation (AsAo and AbAo diameter) induced by siAdamts1 ([3]; losartan 10 mg/kg/day minipump): prevented siAdamts1-induced dilation of the AsAo and the AbAo
Systolic and diastolic BP (hypotension) in siAdamts1-transduced mice [3]: hypertensive effect
Time to complete reversal of aortic dilation ([4]; Adamts1+/− and MFS mice): 1 week
Elastic fiber fragmentation [4, 10]: decreased elastic fiber fragmentation
Fibrosis (collagen content) [4, 10]: diminished fibrosis
AsAo and AbAo diameter ([4]; L-NAME in drinking water for 21 days): rapidly decreased AsAo and AbAo diameter to normal levels
Systolic and diastolic BP ([4]; L-NAME in drinking water for 21 days, end of experiment): reverted the systolic and diastolic hypotension
AsAo and AbAo diameters ([5]; 12-week-old mice, L-NAME in drinking water for 21 days): rapidly decreased the AsAo and AbAo diameters to normal levels
Collagen content ([5]; L-NAME 21 days, AsAo and AbAo): unaffected
Elastic fiber fragmentation [5, 10]: diminished elastic fiber fragmentation
Systolic and diastolic BP [5, 10]: augmented the systolic and diastolic BP

Compound: CCCCc1nc(Cl)c(CO)n1Cc1ccc(-c2ccccc2-c2nn[nH]n2)cc1 [losartan]
Elastic fiber fragmentation (elastolysis, elastin breaks) [3]: did not reduce elastic fiber fragmentation
Fibrosis (collagen content) [3]: did not reduce elastic fiber fragmentation or fibrosis
Aortic dilation (AsAo and AbAo diameter) induced by siAdamts1 ([3]; losartan 10 mg/kg/day minipump): neither treatment inhibited aortic dilation
Systolic and diastolic BP (hypotension) in siAdamts1-transduced mice [3]: did not prevent hypotension
BP in control mice ([3]; siCtl control mice, losartan 10 mg/kg/day minipump): reduced BP in control mice
Aortic dilation [6]: these processes are also inhibited
Elastic lamellae fragmentation [6]: these processes are also inhibited
Effectiveness in severe MFS model [7]: less effective
Reduction of the rate of aortic root enlargement ([8]; versus atenolol): no more effective
Benefit of dual therapy with atenolol [8]: no additional benefit

Compound: Angiotensin-II (DRVYIHPF; Angiotensin-2; UniProt P01019 25-32, looked up) [Ang-II]
AA or lethal aortic dissections ([4]; Adamts1+/− mice, Ang-II 28 days): readily triggered their formation
Aortic dilation (AR, AsAo, AbAo) ([9]; 8-week-old wt mice, Ang-II for 28 days, 1 μg/kg/min minipump): promoted generalized aortic dilation
AA or lethal aortic dissections ([9]; wt mice, Ang-II 28 days): barely induced AA or lethal aortic dissections

NO production (total NOx in conditioned media, NO staining) [1]: reduced the expression of NO
Compound: Aminoguanidine
Aortic diameter (ascending and abdominal aorta) ([4]; AG 1.5 gr/1 in drinking water): reduces aortic diameter

NO production (total NOx in conditioned media, NO staining) [1]: reduced the expression of NO
Compound: CC(=N)NCCS(=O)(=O)CC(N)C(=O)O (centres unmarked) [GW273629]
